# Test results reported in US20130053381A1, “2,4-DIOXO-1,4-DIHYDRO-2H-QUINAZOLIN-3-YL-SULFONAMIDE DERIVATIVES” (NOVARTIS AG, priority 2010, published 2013).
# Test system: OF1 mice
# Assay: Maximal electroshock test (MES Test)
# Type: in vivo
# Details: Mus musculus; dose of up to 50 mg/kg, p.o., 1 hour prior to induction of convulsions; read-out: %-Protection
# In short: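 Compound given p.o. (typically 50 mg/kg) 1 h before tonic-clonic convulsions were induced via temporal electrodes (50 Hz, 18 mA, 0.2 s); seizure lasting 3 s or less counted as protection. Read-out is percent protected of five mice per condition; ED50 calculated, blood exposure sampled after shock.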
row,SMILES,responders at 50 mg/kg [%]
1,"CCn1nccc1-c1cc2c(=O)n(N(C(C)=O)S(C)(=O)=O)c(=O)[nH]c2cc1C(F)F [N-Acetyl-N-[7-difluoromethyl-6-(2-ethyl-2H-pyrazol-3-yl)-2,4-dioxo-1,4-dihydro-2H-quinazolin-3-yl]-methanesulfonamide]",0
2,"CCc1cc2[nH]c(=O)n(N(C(C)=O)S(C)(=O)=O)c(=O)c2cc1-c1ccnn1CC [N-Acetyl-N-[7-ethyl-6-(2-ethyl-2H-pyrazol-3-yl)-2,4-dioxo-1,4-dihydro-2H-quinazolin-3-yl]-methanesulfonamide]",0
3,"CCCC(=O)N(n1c(=O)[nH]c2cc(CC)c(-c3ccnn3CC)cc2c1=O)S(C)(=O)=O [N-Butyryl-N-[7-ethyl-6-(2-ethyl-2H-pyrazol-3-yl)-2,4-dioxo-1,4-dihydro-2H-quinazolin-3-yl]-methanesulfonamide]",0
4,"CCn1nccc1-c1cc2c(=O)n(N(C(=O)CCSC)S(C)(=O)=O)c(=O)[nH]c2cc1C(F)(F)F [N-[6-(2-Ethyl-2H-pyrazol-3-yl)-2,4-dioxo-7-trifluoromethyl-1,4-dihydro-2H-quinazolin-3-yl]-N-(3-methylsulfanyl-propionyl)-methanesulfonamide]",0
5,"CCCCC(=O)N(n1c(=O)[nH]c2cc(C(F)(F)F)c(-c3ccnn3CC)cc2c1=O)S(C)(=O)=O [N-[6-(2-Ethyl-2H-pyrazol-3-yl)-2,4-dioxo-7-trifluoromethyl-1,4-dihydro-2H-quinazolin-3-yl]-N-pentanoyl-methanesulfonamide]",0
6,"CCCCC(=O)N(n1c(=O)[nH]c2cc(C(F)(F)F)c(-c3ccnn3C(C)C)cc2c1=O)S(C)(=O)=O [N-[6-(2-Isopropyl-2H-pyrazol-3-yl)-2,4-dioxo-7-trifluoromethyl-1,4-dihydro-2H-quinazolin-3-yl]-N-pentanoyl-methanesulfonamide]",0
7,"CCn1nccc1-c1cc2c(=O)n(N(C(=O)C(C)(C)C)S(C)(=O)=O)c(=O)[nH]c2cc1C(F)F [N-[7-Difluoromethyl-6-(2-ethyl-2H-pyrazol-3-yl)-2,4-dioxo-1,4-dihydro-2H-quinazolin-3-yl]-N-(2,2-dimethyl-propionyl)-methanesulfonamide]",0
8,"CCn1nccc1-c1cc2c(=O)n(N(C(=O)CCSC)S(C)(=O)=O)c(=O)[nH]c2cc1C(F)F [N-[7-Difluoromethyl-6-(2-ethyl-2H-pyrazol-3-yl)-2,4-dioxo-1,4-dihydro-2H-quinazolin-3-yl]-N-(3-methylsulfanyl-propionyl)-methanesulfonamide]",0
9,"CCCCC(=O)N(n1c(=O)[nH]c2cc(C(F)F)c(-c3ccnn3CC)cc2c1=O)S(C)(=O)=O [N-[7-Difluoromethyl-6-(2-ethyl-2H-pyrazol-3-yl)-2,4-dioxo-1,4-dihydro-2H-quinazolin-3-yl]-N-pentanoyl-methanesulfonamide]",0
10,"CCC(=O)N(n1c(=O)[nH]c2cc(C(F)F)c(-c3ccnn3CC)cc2c1=O)S(C)(=O)=O [N-[7-Difluoromethyl-6-(2-ethyl-2H-pyrazol-3-yl)-2,4-dioxo-1,4-dihydro-2H-quinazolin-3-yl]-N-propionyl-methanesulfonamide]",0
11,"CCCCCC(=O)N(n1c(=O)[nH]c2cc(C(F)F)c(-c3ccnn3C(C)C)cc2c1=O)S(C)(=O)=O [N-[7-Difluoromethyl-6-(2-isopropyl-2H-pyrazol-3-yl)-2,4-dioxo-1,4-dihydro-2H-quinazolin-3-yl]-N-hexanoyl-methanesulfonamide]",0
12,"CC(C)C(=O)N(n1c(=O)[nH]c2cc(C(F)F)c(-c3ccnn3C(C)C)cc2c1=O)S(C)(=O)=O [N-[7-Difluoromethyl-6-(2-isopropyl-2H-pyrazol-3-yl)-2,4-dioxo-1,4-dihydro-2H-quinazolin-3-yl]-N-isobutyryl-methanesulfonamide]",0
13,"CCc1cc2[nH]c(=O)n(N(C(=O)C(C)C)S(C)(=O)=O)c(=O)c2cc1-c1ccnn1CC [N-[7-Ethyl-6-(2-ethyl-2H-pyrazol-3-yl)-2,4-dioxo-1,4-dihydro-2H-quinazolin-3-yl]-N-isobutyryl-methanesulfonamide]",0
14,"CCc1cc2[nH]c(=O)n(N(C(=O)C(C)C)S(C)(=O)=O)c(=O)c2cc1-c1ccnn1C [N-[7-Ethyl-6-(2-methyl-2H-pyrazol-3-yl)-2,4-dioxo-1,4-dihydro-2H-quinazolin-3-yl]-N-isobutyryl-methanesulfonamide]",0
15,"CC(C)CC(=O)N(n1c(=O)[nH]c2cc(C(C)C)c(-c3ccnn3C)cc2c1=O)S(C)(=O)=O [N-[7-Isopropyl-6-(2-methyl-2H-pyrazol-3-yl)-2,4-dioxo-1,4-dihydro-2H-quinazolin-3-yl]-N-(3-methyl-butyryl)-methanesulfonamide]",0
16,"CC(C)C(=O)N(n1c(=O)[nH]c2cc(C(F)(F)F)c([C@H]3CCCO3)cc2c1=O)S(C)(=O)=O [N—((R)-2,4-Dioxo-6-tetrahydro-furan-2-yl-7-trifluoromethyl-1,4-dihydro-2H-quinazolin-3-yl)-N-isobutyryl-methanesulfonamide]",0
17,"COC(=O)N(n1c(=O)[nH]c2cc(C(F)(F)F)c(-c3ccnn3C(C)C)cc2c1=O)S(C)(=O)=O [[6-(2-Isopropyl-2H-pyrazol-3-yl)-2,4-dioxo-7-trifluoromethyl-1,4-dihydro-2H-quinazolin-3-yl]-methanesulfonyl-carbamic acid methyl ester]",0
18,"CCCCOC(=O)N(n1c(=O)[nH]c2cc(C(F)F)c(-c3ccnn3CC)cc2c1=O)S(C)(=O)=O [[7-Difluoromethyl-6-(2-ethyl-2H-pyrazol-3-yl)-2,4-dioxo-1,4-dihydro-2H-quinazolin-3-yl]-methanesulfonyl-carbamic acid butyl ester]",0
19,"CCn1nccc1-c1cc2c(=O)n(N(C(=O)OC)S(C)(=O)=O)c(=O)[nH]c2cc1C(F)F [[7-Difluoromethyl-6-(2-ethyl-2H-pyrazol-3-yl)-2,4-dioxo-1,4-dihydro-2H-quinazolin-3-yl]-methanesulfonyl-carbamic acid methyl ester]",0
20,"CCCCOC(=O)N(n1c(=O)[nH]c2cc(C(F)F)c(-c3ccnn3C(C)C)cc2c1=O)S(C)(=O)=O [[7-Difluoromethyl-6-(2-isopropyl-2H-pyrazol-3-yl)-2,4-dioxo-1,4-dihydro-2H-quinazolin-3-yl]-methanesulfonyl-carbamic acid butyl ester]",0
21,"CC(C)COC(=O)N(n1c(=O)[nH]c2cc(C(F)F)c(-c3ccnn3C(C)C)cc2c1=O)S(C)(=O)=O [[7-Difluoromethyl-6-(2-isopropyl-2H-pyrazol-3-yl)-2,4-dioxo-1,4-dihydro-2H-quinazolin-3-yl]-methanesulfonyl-carbamic acid isobutyl ester]",0
22,"COC(=O)N(n1c(=O)[nH]c2cc(C(F)F)c(-c3ccnn3C(C)C)cc2c1=O)S(C)(=O)=O [[7-Difluoromethyl-6-(2-isopropyl-2H-pyrazol-3-yl)-2,4-dioxo-1,4-dihydro-2H-quinazolin-3-yl]-methanesulfonyl-carbamic acid methyl ester]",0

# Target: AMPA receptor
# Assay: [3H]CNQX binding test (AMPA-receptor binding)
# Set-up: species or system rat
# Details: Table 1A parent compounds; AMPA-receptor binding as described for Table 2; read-out: IC50
# Description: CNQX binding test (Honore et al. Biochem. Pharmacol. 1989, 38: 3207-3212). This test is performed as follows.
# Brain membranes: The animals are sacrificed, the brain removed and homogenized in 10 volumes of ice-cold 10% sucrose with a glass/Teflon homogenizer at positions 5 for 30 sec. The membranes are centrifuged at 1000×g for 10 min, and the supernatant centrifuged at 20,000×g for 15 min. The resulting pellet is resuspended in 10 volumes of cold water with a tissue homogenizer (Brinkman Polytron) at position 5 for 15 sec and the suspension centrifuged at 8000×g for 10 min. The supernatant including the buffy layer is centrifuged at 40,000×g for 20 min, the pellet resuspended in 5 volumes of water and the suspension frozen (20-30 min in dry ice/MeOH) and thawed (water-bath at 37° C.) twice. The suspension is centrifuged at 40,000×g for 20 min, the pellet resuspended in 50 mM HEPES/KOH, pH 7.5, and centrifuged at 40,000×g for 10 min. The final pellet is resuspended with a glass/Teflon homogenizer in 5 volumes of HEPES/KOH buffer; 2 mL aliquots are frozen and stored in liquid nitrogen.
# Pretreatment of membranes: Membranes are thawed at 35° C. and once washed with 50 mM HEPES/KOH by centrifugation at 39,000×g for 10 min. The final pellet is resuspended with a glass/Teflon homogenizer in the same buffer.
# Radioligand binding assay: It is performed using 96-well microtiterplates in a volume of 0.3 mL of 50 mM HEPES/KOH, pH 7.2, 100 μg membrane protein, 5 nM [^3H]-CNQX (NEN) and the compound to be tested. Incubation is performed at 4° C. for 40 min and the reaction is terminated by centrifugation (Sigma 4K10) at 3700×g for 30 min. The pellet is washed once with cold buffer and then dissolved in 0.02 mL of the tissue solubilizer Soluene for 20 min. Two hundred μL of the scintillation fluid Microscint 20 (Packard) are added and the radioactivity is counted in a Packard Topcount scintillation counter at an efficiency of 40-45%. Nonspecific binding is defined by 10 μM CNQX. Assays are performed in triplicate.
row,SMILES,IC50 [nM]
1,COC(C)c1cc2c(=O)n(NS(C)(=O)=O)c(=O)[nH]c2cc1C(F)(F)F (centres unmarked) [Example 16.0],390
2,CCOC(C)c1cc2c(=O)n(NS(C)(=O)=O)c(=O)[nH]c2cc1C(F)(F)F (centres unmarked) [Example 17.0],350
3,CC(C)OC(C)c1cc2c(=O)n(NS(C)(=O)=O)c(=O)[nH]c2cc1C(F)(F)F (centres unmarked) [Example 18.0],320
4,CCCOC(CC)c1cc2c(=O)n(NS(C)(=O)=O)c(=O)[nH]c2cc1C(F)(F)F (centres unmarked) [Example 19.0],520
5,CCC(OC(C)C)c1cc2c(=O)n(NS(C)(=O)=O)c(=O)[nH]c2cc1C(F)(F)F (centres unmarked) [Example 20.0],380
6,CCOC(C)c1cc2c(=O)n(NS(C)(=O)=O)c(=O)[nH]c2cc1C(F)F (centres unmarked) [Example 21.0],900
7,CCCOC(C)c1cc2c(=O)n(NS(C)(=O)=O)c(=O)[nH]c2cc1C(F)(F)F (centres unmarked) [Example 22.0],980
8,CCCCOC(C)c1cc2c(=O)n(NS(C)(=O)=O)c(=O)[nH]c2cc1C(F)(F)F (centres unmarked) [Example 23.0],760
9,CC(C)COC(C)c1cc2c(=O)n(NS(C)(=O)=O)c(=O)[nH]c2cc1C(F)(F)F (centres unmarked) [Example 24.0],1810
10,CC(OC1CCCC1)c1cc2c(=O)n(NS(C)(=O)=O)c(=O)[nH]c2cc1C(F)(F)F (centres unmarked) [Example 25.0],540
